Test results as given in ChEMBL document CHEMBL1148006, “Benzimidazo[1,2-c][1,2,3]thiadiazole-7-sulfonamides as inhibitors of carbonic anhydrase” (Bioorg Med Chem Lett, 2007).

Biological target: Carbonic anhydrase 2 (Bos taurus, UniProt P00921)
Assay: Binding affinity to bovine CA2 by typical isothermal titration calorimetry

Sequence of Carbonic anhydrase 2 (P00921 whole entry): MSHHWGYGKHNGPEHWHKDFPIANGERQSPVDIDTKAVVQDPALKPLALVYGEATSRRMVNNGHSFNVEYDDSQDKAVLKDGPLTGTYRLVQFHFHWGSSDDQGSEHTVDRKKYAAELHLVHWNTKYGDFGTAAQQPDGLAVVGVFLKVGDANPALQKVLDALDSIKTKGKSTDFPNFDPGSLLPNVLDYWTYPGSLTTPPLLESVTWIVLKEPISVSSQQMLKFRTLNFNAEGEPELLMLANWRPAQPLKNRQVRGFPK

| SMILES | Kd [µM] |
| --- | --- |
| NS(=O)(=O)c1ccc2nc3n(c2c1)N=S=C3 | 0.286 |
| CSC1=S=Nn2c1nc1ccc(S(N)(=O)=O)cc12 | 0.322 |
| NS(=O)(=O)c1ccc2nc3n(c2c1)N=S=C3N1CCOCC1 | 0.038 |
| NS(=O)(=O)c1ccc2nc3n(c2c1)N=S=C3Sc1ccccc1 | 0.285 |
| CN1CCN(C2=S=Nn3c2nc2ccc(S(N)(=O)=O)cc23)CC1 | 0.391 |
| CS(=O)(=O)C1=S=Nn2c1nc1ccc(S(N)(=O)=O)cc12 | 0.5 |
| NS(=O)(=O)c1ccc2nc3n(c2c1)N=S=C3Cl | 0.141 |
